This is an account of results in ChEMBL document CHEMBL4619762, “Exploring the Sequence Diversity of Cyclotides from Vietnamese Viola Species” (J Nat Prod, 2020).

Bridge positions count the residues as written; N and C are the ends. Peptide text beside a SMILES is read from it. Bounds are passed on as bounds.

One may read the IC50 as the concentration needed to halve the response being measured.

One experiment relates to PC-3. Put plainly: Cytotoxicty against human PC3 cells after 24 hrs by MTT assay. Type of experiment: functional, cell-based. To be noted: PC-3, 24 h. (In general: Formazan colour is commonly taken as a measure of viable cells.)
In a further experiment the test system is HeLa. Put plainly: Cytotoxicty against human HeLa cells after 24 hrs by MTT assay. It counts as functional, cell-based.
For another experiment, the system named is HUVEC. The experiment in a line: Cytotoxicty against HUVEC after 24 hrs by MTT assay. Type of experiment: cell-based. To be noted: Homo sapiens.
The subject of the next experiment is Erythrocyte. The experiment in a line: Hemolytic activity in human red blood cells after 1 hr. Type of experiment: ADME, cell-based.

Regarding `CC[C@H](C)[C@@H]1NC(=O)[C@@H]2CSSC[C@@H]3NC(=O)[C@H](C(C)C)NC(=O)[C@H](CCCCN)NC(=O)[C@H](CO)NC(=O)[C@H](CCCCN)NC(=O)[C@@H]4CSSC[C@H](NC(=O)[C@H](CO)NC(=O)[C@H](CCC(=O)O)NC(=O)CNC(=O)[C@H](CSSC[C@H](NC(=O)CNC(=O)[C@H](CC(C)C)NC(=O)[C@H](C)NC(=O)[C@H](C)NC(=O)[C@H]([C@@H](C)O)NC1=O)C(=O)N[C@H](CO)C(=O)N4)NC(=O)[C@@H]1CCCN1C(=O)[C@H]([C@@H](C)CC)NC(=O)CNC(=O)[C@H](CC(N)=O)NC(=O)[C@H](CCCNC(=N)N)NC(=O)[C@H](Cc1ccc(O)cc1)NC3=O)C(=O)N[C@@H](C(C)C)C(=O)N[C@@H](Cc1ccc(O)cc1)C(=O)N[C@@H]([C@@H](C)CC)C(=O)N1CCC[C@H]1C(=O)N2`, the half-maximal inhibitory concentration (IC50) worked out at 0.5 µM in the experiment on PC-3, 0.5 µM in the experiment on HeLa, 0.4 µM with HUVEC and 11.1 µM with Erythrocyte.
With `CC[C@H](C)[C@@H]1NC(=O)[C@H](C)NC(=O)[C@H](C)NC(=O)[C@H](CO)NC(=O)[C@H]([C@@H](C)CC)NC(=O)[C@@H]2CSSC[C@@H]3NC(=O)[C@H](C(C)C)NC(=O)[C@H](CCCCN)NC(=O)[C@H](CO)NC(=O)[C@H](CCCCN)NC(=O)[C@@H]4CSSC[C@H](NC(=O)[C@H](CO)NC(=O)[C@H](CCC(=O)O)NC(=O)CNC(=O)[C@H](CSSC[C@H](NC(=O)CNC1=O)C(=O)N[C@@H](CO)C(=O)N4)NC(=O)[C@@H]1CCCN1C(=O)[C@H]([C@@H](C)CC)NC(=O)CNC(=O)[C@H](CC(N)=O)NC(=O)[C@H](CCCNC(=N)N)NC(=O)[C@H](Cc1ccc(O)cc1)NC3=O)C(=O)N[C@@H](C(C)C)C(=O)N[C@@H](Cc1c[nH]c3ccccc13)C(=O)N[C@@H]([C@@H](C)CC)C(=O)N1CCC[C@H]1C(=O)N2` [CYCLOVIOLACIN O13] (cyclo(AAIGCSCKSKVCYRNGIPCGESCVWIPCIS); disulfide 5-19, 7-23, 12-28), the IC50 amounted to 0.6 µM in the experiment with PC-3, 0.7 µM in the experiment with HeLa, 0.5 µM in the experiment with HUVEC and 14.9 µM in the experiment on Erythrocyte.
For `CC[C@H](C)[C@@H]1NC(=O)[C@H](C)NC(=O)[C@H](CO)NC(=O)[C@H](CO)NC(=O)[C@H]([C@@H](C)CC)NC(=O)[C@@H]2CSSC[C@@H]3NC(=O)[C@H](C(C)C)NC(=O)[C@H](CCCCN)NC(=O)[C@H](CO)NC(=O)[C@H](CCCCN)NC(=O)[C@@H]4CSSC[C@H](NC(=O)[C@H](CO)NC(=O)[C@H](CCC(=O)O)NC(=O)CNC(=O)[C@H](CSSC[C@H](NC(=O)CNC1=O)C(=O)N[C@@H](CO)C(=O)N4)NC(=O)[C@@H]1CCCN1C(=O)[C@H]([C@@H](C)CC)NC(=O)CNC(=O)[C@H](CC(N)=O)NC(=O)[C@H](CCCNC(=N)N)NC(=O)[C@H](Cc1ccc(O)cc1)NC3=O)C(=O)N[C@@H](C(C)C)C(=O)N[C@@H](Cc1c[nH]c3ccccc13)C(=O)N[C@@H]([C@@H](C)CC)C(=O)N1CCC[C@H]1C(=O)N2` (cyclo(AIGCSCKSKVCYRNGIPCGESCVWIPCISS); disulfide 4-18, 6-22, 11-27), the IC50 in the experiment with PC-3 stood at 0.8 µM; in the experiment with HeLa, 0.7 µM; with HUVEC, 0.6 µM.
In the same order, the values of `CC[C@H](C)[C@@H]1NC(=O)[C@@H]2CSSC[C@@H]3NC(=O)[C@H](C(C)C)NC(=O)[C@H](CCCCN)NC(=O)[C@H](CO)NC(=O)[C@H](CCCCN)NC(=O)[C@@H]4CSSC[C@H](NC(=O)[C@H](CO)NC(=O)[C@H](CCC(=O)O)NC(=O)CNC(=O)[C@H](CSSC[C@H](NC(=O)CNC(=O)[C@@H](CC(C)C)NC(=O)[C@H](CC(C)C)NC(=O)[C@H]([C@@H](C)O)NC(=O)[C@H](CO)NC1=O)C(=O)N[C@@H](CO)C(=O)N4)NC(=O)[C@@H]1CCCN1C(=O)[C@H]([C@@H](C)CC)NC(=O)[C@H](C(C)C)NC(=O)CNC(=O)[C@H](CC(N)=O)NC(=O)[C@H](CCCNC(=N)N)NC(=O)[C@H](Cc1ccc(O)cc1)NC3=O)C(=O)N[C@@H](C(C)C)C(=O)N[C@@H](Cc1ccccc1)C(=O)N[C@@H]([C@@H](C)CC)C(=O)N1CCC[C@H]1C(=O)N2` are 1.1 µM, 1.8 µM and 1.2 µM.
Consider `CC(C)C[C@@H]1NC(=O)CNC(=O)[C@H](CC(N)=O)NC(=O)[C@H](CCCNC(=N)N)NC(=O)[C@H]([C@@H](C)O)NC(=O)[C@@H]2CSSC[C@@H]3NC(=O)[C@H]([C@@H](C)O)NC(=O)CNC(=O)CNC(=O)[C@H](C(C)C)NC(=O)[C@@H]4CSSC[C@H](NC(=O)[C@H](CO)NC(=O)[C@H](CSSC[C@H](NC(=O)[C@H](C(C)C)NC(=O)[C@@H]5CCCN5C1=O)C(=O)NCC(=O)N[C@@H](CCC(=O)O)C(=O)N[C@@H]([C@@H](C)O)C(=O)N4)NC(=O)CNC(=O)[C@@H]1CCCN1C(=O)[C@H]([C@@H](C)O)NC(=O)[C@H](CC(N)=O)NC3=O)C(=O)N[C@@H](CO)C(=O)N[C@@H](Cc1c[nH]c3ccccc13)C(=O)N1CCC[C@H]1C(=O)N[C@@H](C(C)C)C(=O)N2`, for which the half-maximal inhibitory concentration (IC50) in the experiment on PC-3 is 3.6 µM; in the experiment on HeLa, 5.2 µM; in the experiment with HUVEC, 4 µM; in the experiment with Erythrocyte, at least 50 µM.
